Key:
[1] = molecular target: hGYS1 enzyme (recombinant hGYS1/GN1 protein) (Homo sapiens (Human), UniProt P13807); experiment: GYS1 coupled enzyme assay (PK/LDH); format: biochemical; settings: hGYS1/GN1 50 nM, UDP-Glucose 0.8 mM, G6P 1 mM; geometric mean of at least 2 runs
[2] = test system: hGYS1 enzyme / glycogen synthesis in HeLa cells; experiment: GYS1 cell based assay (glycogen synthesis, Glucose-glo); parameters: species or system human; settings: Homo sapiens, HeLa, 24 h, 24 h incubation, 20 mM glucose, geometric mean of at least 2 runs
In short: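 HeLa cells starved 24 h in medium containing only 1× Glutamax were plated onto compound in medium with 20 mM glucose (1% DMSO final) for 24 h, 37 °C, 5% CO2. Acid lysates were Tris-quenched, glucoamylase-digested (pH 5.3, 1 h, 37 °C) and read by Glucose-glo luminescence. IC50 came from Hill fits, as geometric mean of ≥2 runs.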

[3] = molecular target: hGYS2 enzyme (recombinant hGYS2/GN1 protein) (Homo sapiens (Human), UniProt P54840); experiment: GYS2 coupled enzyme assay (PK/LDH); format: biochemical; settings: geometric mean of at least 2 assay runs on separate days, read-out: Avg_IC50
hGYS2 enzyme (recombinant hGYS2/GN1 protein), sequence (P54840 whole entry): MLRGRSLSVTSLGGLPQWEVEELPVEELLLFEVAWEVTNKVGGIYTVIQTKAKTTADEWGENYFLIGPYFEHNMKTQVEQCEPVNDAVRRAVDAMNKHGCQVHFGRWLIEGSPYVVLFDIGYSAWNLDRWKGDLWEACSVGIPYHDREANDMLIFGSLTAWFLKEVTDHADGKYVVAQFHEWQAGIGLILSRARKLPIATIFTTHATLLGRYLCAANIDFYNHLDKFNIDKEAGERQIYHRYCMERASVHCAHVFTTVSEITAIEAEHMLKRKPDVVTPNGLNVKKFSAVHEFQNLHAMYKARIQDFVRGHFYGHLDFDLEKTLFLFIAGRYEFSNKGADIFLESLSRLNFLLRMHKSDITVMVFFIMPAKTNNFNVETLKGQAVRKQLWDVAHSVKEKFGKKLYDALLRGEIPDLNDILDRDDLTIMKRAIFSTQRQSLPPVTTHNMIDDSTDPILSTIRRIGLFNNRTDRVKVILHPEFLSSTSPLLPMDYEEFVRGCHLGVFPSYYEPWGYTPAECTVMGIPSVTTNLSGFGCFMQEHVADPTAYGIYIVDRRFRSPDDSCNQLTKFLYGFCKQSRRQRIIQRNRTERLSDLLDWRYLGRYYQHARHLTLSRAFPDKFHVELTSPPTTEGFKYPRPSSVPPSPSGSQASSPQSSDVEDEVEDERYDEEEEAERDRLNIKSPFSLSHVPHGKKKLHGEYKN
hGYS2 enzyme (recombinant hGYS2/GN1 protein), sequence (P46976 whole entry partner): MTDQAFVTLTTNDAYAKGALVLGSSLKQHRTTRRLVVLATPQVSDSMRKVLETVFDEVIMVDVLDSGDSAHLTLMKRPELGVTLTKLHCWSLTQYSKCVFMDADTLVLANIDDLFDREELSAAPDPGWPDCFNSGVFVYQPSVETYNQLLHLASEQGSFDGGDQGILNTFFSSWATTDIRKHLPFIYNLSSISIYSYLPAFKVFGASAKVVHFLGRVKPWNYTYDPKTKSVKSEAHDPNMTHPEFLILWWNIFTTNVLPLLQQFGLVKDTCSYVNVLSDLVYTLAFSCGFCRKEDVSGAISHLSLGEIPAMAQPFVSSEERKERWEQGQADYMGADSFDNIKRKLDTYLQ
In short: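 Read-out: NADH loss at 340 nm, read each minute for 10 min, slope normalized to controls, duplicate % inhibition fit to Hill (0–100). Enzyme: 200 nM hGYS2/GN1; substrate 2 mM UDP-glucose plus 0.2% glycogen and 2 mM G6P; pH 7.5 Tris, 2.5% DMSO.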

hGYS1 enzyme (recombinant hGYS1/GN1 protein), sequence (P13807 whole entry): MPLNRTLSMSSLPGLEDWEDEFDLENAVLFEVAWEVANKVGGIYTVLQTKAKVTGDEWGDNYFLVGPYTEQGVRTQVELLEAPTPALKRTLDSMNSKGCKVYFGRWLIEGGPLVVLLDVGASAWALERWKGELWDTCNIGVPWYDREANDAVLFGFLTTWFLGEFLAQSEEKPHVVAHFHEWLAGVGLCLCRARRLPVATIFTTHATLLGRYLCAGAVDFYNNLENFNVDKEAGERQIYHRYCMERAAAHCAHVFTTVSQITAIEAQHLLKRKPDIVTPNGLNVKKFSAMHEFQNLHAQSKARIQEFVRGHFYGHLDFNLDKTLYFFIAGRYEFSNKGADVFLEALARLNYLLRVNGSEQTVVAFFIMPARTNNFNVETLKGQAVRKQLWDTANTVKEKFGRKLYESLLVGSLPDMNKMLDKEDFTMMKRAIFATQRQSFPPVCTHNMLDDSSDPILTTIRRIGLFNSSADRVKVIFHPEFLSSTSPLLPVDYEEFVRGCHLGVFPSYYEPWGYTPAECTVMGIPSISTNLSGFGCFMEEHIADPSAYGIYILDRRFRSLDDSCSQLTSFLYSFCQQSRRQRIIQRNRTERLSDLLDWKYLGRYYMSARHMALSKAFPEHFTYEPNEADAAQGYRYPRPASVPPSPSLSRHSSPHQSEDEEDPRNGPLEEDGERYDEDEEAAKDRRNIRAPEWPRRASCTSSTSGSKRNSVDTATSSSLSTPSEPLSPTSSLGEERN
hGYS1 enzyme (recombinant hGYS1/GN1 protein), sequence (P46976 whole entry partner): as the sequence (P46976 whole entry partner) above

With CC(C)c1ccc([C@@H](NC(=O)[C@@H]2C[C@@H](F)CN2C(=O)[C@H]2CNC(=O)O2)c2ccccc2)cc1F [Compound 382, (2S,4R)-4-fluoro-N-[(S)-[3-fluoro-4-(propan-2-yl)phenyl](phenyl)methyl]-1-[(5R)-2-oxo-1,3-oxazolidine-5-carbonyl]pyrrolidine-2-carboxamide] the IC50 [1] was 34 nM, the IC50 [2] was 520 nM and the IC50 [3] was > 100000 nM.
For CC(C)c1ccc([C@@H](NC(=O)[C@@H]2C[C@@H](F)CN2C(=O)Cc2nnc(C(F)F)o2)c2ccccc2)cc1F [Compound 383, (2S,4R)-1-{2-[5-(difluoromethyl)-1,3,4-oxadiazol-2-yl]acetyl}-4-fluoro-N-[(S)-[3-fluoro-4-(propan-2-yl)phenyl](phenyl)methyl] pyrrolidine-2-carboxamide], the IC50 [1] was 27 nM, the IC50 [2] was 410 nM and the IC50 [3] was > 100000 nM.
With CC(C)c1ccc([C@@H](NC(=O)[C@@H]2C[C@@H](F)CN2C(=O)Cn2cnnc2)c2ccccc2)cc1F [Compound 384, (2S,4R)-4-fluoro-N-[(S)-[3-fluoro-4-(propan-2-yl)phenyl](phenyl)methyl]-1-[2-(4H-1,2,4-triazol-4-yl)acetyl]pyrrolidine-2-carboxamide] the IC50 [1] was 33 nM, the IC50 [2] was 700 nM and the IC50 [3] was > 100000 nM.
CC(C)c1ccc([C@@H](NC(=O)[C@@H]2C[C@@H](F)CN2C(=O)Cc2cnn[nH]2)c2ccccc2)nc1F [Compound 385, (2S,4R)-1-(2-(1H-1,2,3-triazol-5-yl)acetyl)-4-fluoro-N—((S)-(6-fluoro-5-isopropylpyridin-2-yl)(phenyl)methyl)pyrrolidine-2-carboxamide] was tested, and the IC50 [1] was 17 nM, the IC50 [2] was 390 nM and the IC50 [3] was > 100000 nM.
Work on Cc1ccc2c(CC(=O)N3C[C@H](F)C[C@H]3C(=O)N[C@@H](c3ccccc3)c3ccc(C(C)C)c(F)n3)cccc2n1 [Compound 387, (2S,4R)-4-fluoro-N-[(S)-[6-fluoro-5-(propan-2-yl)pyridin-2-yl](phenyl)methyl]-1-[2-(2-methylquinolin-5-yl)acetyl]pyrrolidine-2-carboxamide] yielded an IC50 [1] of 5 nM, an IC50 [2] of 30 nM and an IC50 [3] of 36200 nM.
CC(C)c1ccc([C@@H](NC(=O)[C@@H]2C[C@@H](F)CN2C(=O)Cn2cnc3ccccc32)c2ccccc2)nc1F [Compound 389, (2S,4R)-1-[2-(1H-1,3-benzodiazol-1-yl)acetyl]-4-fluoro-N-[(S)-[6-fluoro-5-(propan-2-yl)pyridin-2-yl](phenyl)methyl] pyrrolidine-2-carboxamide] was tested, and the IC50 [1] was 4 nM, the IC50 [2] was 50 nM and the IC50 [3] was > 90300 nM.
In the case of CC(C)c1ccc([C@@H](NC(=O)[C@@H]2C[C@@H](F)CN2C(=O)Cn2cnnc2)c2ccccc2)nc1F [Compound 390, (2S,4R)-4-fluoro-N-[(S)-[6-fluoro-5-(propan-2-yl)pyridin-2-yl](phenyl)methyl]-1-[2-(4H-1,2,4-triazol-4-yl)acetyl] pyrrolidine-2-carboxamide], the IC50 [1] is reported as 27 nM, the IC50 [2] is reported as 1030 nM and the IC50 [3] is reported as > 100000 nM.
CC(C)c1ccc([C@@H](NC(=O)[C@@H]2C[C@@H](F)CN2C(=O)Cc2cccn3c(=O)[nH]nc23)c2ccccc2)nc1F [Compound 391, (2S,4R)-4-fluoro-N-[(S)-[6-fluoro-5-(propan-2-yl)pyridin-2-yl](phenyl)methyl]-1-(2-{3-oxo-2H,3H-[1,2,4]triazolo[4,3-a]pyridin-8-yl}acetyl) pyrrolidine-2-carboxamide] was tested, and the IC50 [1] was 6 nM, the IC50 [2] was 150 nM and the IC50 [3] was 89300 nM.
In the case of CC(C)c1ccc([C@@H](NC(=O)[C@@H]2C[C@@H](F)CN2C(=O)Cn2ncc(N(C)C)n2)c2ccccc2)nc1F [Compound 392, (2S,4R)-1-{2-[4-(dimethylamino)-2H-1,2,3-triazol-2-yl]acetyl}-4-fluoro-N-[(S)-[6-fluoro-5-(propan-2-yl)pyridin-2-yl](phenyl)methyl] pyrrolidine-2-carboxamide], the IC50 [1] is reported as 5 nM, the IC50 [2] is reported as 100 nM and the IC50 [3] is reported as > 100000 nM.
With CC(C)c1ccc([C@@H](NC(=O)[C@@H]2C[C@@H](F)CN2C(=O)Cn2cc(N(C)C)nn2)c2ccccc2)nc1F [Compound 393, (2S,4R)-1-{2-[4-(dimethylamino)-1H-1,2,3-triazol-1-yl]acetyl}-4-fluoro-N-[(S)-[6-fluoro-5-(propan-2-yl)pyridin-2-yl](phenyl)methyl] pyrrolidine-2-carboxamide] the IC50 [1] was 8 nM, the IC50 [2] was 120 nM and the IC50 [3] was > 100000 nM.
In the case of CC(C)c1ccc([C@@H](NC(=O)[C@@H]2C[C@@H](F)CN2C(=O)CNC(=O)N(C)C)c2ccccc2)nc1F [Compound 394, (2S,4R)-1-{2-[(dimethylcarbamoyl)amino]acetyl}-4-fluoro-N-[(S)-[6-fluoro-5-(propan-2-yl)pyridin-2-yl](phenyl)methyl] pyrrolidine-2-carboxamide], the IC50 [1] is reported as 7 nM, the IC50 [2] is reported as 150 nM and the IC50 [3] is reported as > 100000 nM.
In the case of CNC(=O)NCC(=O)N1C[C@H](F)C[C@H]1C(=O)N[C@@H](c1ccccc1)c1ccc(C(C)C)c(F)n1 [Compound 395, (2S,4R)-4-fluoro-N-[(S)-[6-fluoro-5-(propan-2-yl)pyridin-2-yl](phenyl)methyl]-1-{2-[(methylcarbamoyl)amino]acetyl}pyrrolidine-2-carboxamide], the IC50 [1] is reported as 8 nM, the IC50 [2] is reported as 240 nM and the IC50 [3] is reported as > 100000 nM.
With CC(C)c1ccc([C@@H](NC(=O)[C@@H]2C[C@@H](F)CN2C(=O)CNC(N)=O)c2ccccc2)nc1F [Compound 396, (2S,4R)-1-[2-(carbamoylamino)acetyl]-4-fluoro-N-[(S)-[6-fluoro-5-(propan-2-yl)pyridin-2-yl](phenyl)methyl] pyrrolidine-2-carboxamide] the IC50 [1] was 13 nM, the IC50 [2] was 330 nM and the IC50 [3] was > 100000 nM.
For CC(C)c1ccc([C@@H](NC(=O)[C@@H]2C[C@@H](F)CN2C(=O)Cc2n[nH]c(=O)n2C)c2ccccc2)nc1F [Compound 398, (2S,4R)-4-fluoro-N-[(S)-[6-fluoro-5-(propan-2-yl)pyridin-2-yl](phenyl)methyl]-1-[2-(4-methyl-5-oxo-4,5-dihydro-1H-1,2,4-triazol-3-yl)acetyl] pyrrolidine-2-carboxamide], the IC50 [1] was 9 nM, the IC50 [2] was 280 nM and the IC50 [3] was > 100000 nM.
For CC(C)c1ccc([C@@H](NC(=O)[C@@H]2C[C@@H](F)CN2C(=O)CNC(=O)N2CCC2)c2ccccc2)nc1F [Compound 399, (2S,4R)-1-{2-[(azetidine-1-carbonyl)amino]acetyl}-4-fluoro-N-[(S)-[6-fluoro-5-(propan-2-yl)pyridin-2-yl](phenyl)methyl] pyrrolidine-2-carboxamide], the IC50 [1] was 8 nM, the IC50 [2] was 150 nM and the IC50 [3] was > 100000 nM.
With CC(C)c1ccc([C@@H](NC(=O)[C@@H]2C[C@@H](F)CN2C(=O)Cn2nnnc2C(F)F)c2ccccc2)nc1F [Compound 400, (2S,4R)-1-{2-[5-(difluoromethyl)-1H-1,2,3,4-tetrazol-1-yl]acetyl}-4-fluoro-N-[(S)-[6-fluoro-5-(propan-2-yl)pyridin-2-yl](phenyl)methyl] pyrrolidine-2-carboxamide] the IC50 [1] was 12 nM, the IC50 [2] was 170 nM and the IC50 [3] was > 100000 nM.
In the case of CC(C)c1ccc([C@@H](NC(=O)[C@@H]2C[C@@H](F)CN2C(=O)Cc2nn(C)c(=O)o2)c2ccccc2)nc1F [Compound 401, (2S,4R)-4-fluoro-N-[(S)-[6-fluoro-5-(propan-2-yl)pyridin-2-yl](phenyl)methyl]-1-[2-(4-methyl-5-oxo-4,5-dihydro-1,3,4-oxadiazol-2-yl)acetyl]pyrrolidine-2-carboxamide], the IC50 [1] is reported as 10 nM, the IC50 [2] is reported as 290 nM and the IC50 [3] is reported as > 100000 nM.

From patent US11814367B2, “Inhibitors of glycogen synthase 1 (GYS1) and methods of use thereof” (Maze Therapeutics, Inc., priority 2021, dated 2023)
